Assay results from PMC11271341 (Clinical Pharmacokinetics, 2024).
Read-outs that look alike come from different tables or passages of the source.

What was measured:
OCT2/MATE1 = settings: in vitro; pazopanib as OCT1/MATE1 inhibitor (so in the source); cited from earlier work
[1] = Metformin trough plasma concentration; assay type: in vivo, human; settings: n = 18
[2] = tested on: multidrug and toxin extrusion protein 1 (MATE1); settings: in vitro studies; cited from earlier work
[3] = exceeds the glomerular filtration rate; cited from earlier work
[4] = tested on: organic cation transporter 2 (OCT2); settings: in vitro studies; cited from earlier work
[5] = cited from earlier work
[6] = Trifluridine plasma pharmacokinetics, three-phase crossover study in patients; assay type: in vivo; settings: human, oral, median Tmax, range over the three phases, phases A, B and C

For `N.N.[Cl][Pt][Cl]` [cisplatin], the “change in cisplatin exposure when combined with pazopanib” value (OCT2/MATE1) is given as “significant in vitro increase”.
For `CN(C)C(=N)N=C(N)N` [metformin], the “geometric mean Ctrough” value ([1]; metformin 500 mg b.i.d. in combination with trifluridine/tipiracil) was 240 ng/mL and the “geometric mean Ctrough” value ([1]; metformin monotherapy (day 14)) was 150 ng/mL.
For `N=C1CCCN1Cc1nc(O)nc(O)c1Cl` [tipiracil], the “interaction with MATE1” value [2] is given as “substrate and inhibitor”, the renal clearance [3] is given as ~ 300 mL/min and the “interaction with OCT2” value [4] is given as “substrate and inhibitor”.
In the case of `O=c1[nH]c(=O)n([C@H]2C[C@H](O)[C@@H](CO)O2)cc1C(F)(F)F` [trifluridine], the “increase of area under the curve vs normal renal function (≥ 90 mL/min)” value ([5]; mild renal impairment (creatinine clearance between 60 and 89 mL/min)) is listed as 31%, the “increase of area under the curve vs normal renal function (≥ 90 mL/min)” value ([5]; moderate renal impairment (between 30 and 59 mL/min)) is listed as 43% and the Tmax [6] is listed as 46.8 to 60 min.
